Consider two molecules from patent US20220098525A1, “LAUNDRY DETERGENT” (Conopco, Inc., d/b/a UNILEVER, priority 2019, published 2022).

Assay type in all cases: physicochemical
The nature of data set [1]: pKa measured by pH variation and UV-VIS spectrum at 570 nm. The conditions noted are these: water, pH 4, approximately 2×10^−5 mol L^−1 dye in water, pH varied 9.6 to 1.9, UV-VIS at 570 nm; dual pKa fit for the 2 -COOH groups. The method, then:
(§1) pKa values (acid dissociation constant) were measured for the reference dye by dissolving approximately 2×10^−5 mol L^−1 of the dye in water then varying the pH from 9.6 to 1.9 and observing the changes in the UV-VIS spectrum at 570 nm. The pKa values are higher than expected for a free —COOH group which would be 3 to 4 and is attributed to the effect of the alkyl chains.

Data set [2] can be described thus: hydrolysis in the region of pH 4 to 10.
Data set [3] in a line: dissolution of dye in water for pKa measurement. The settings on record: approximately 2×10^−5 mol L^−1 in water, conditions analogous to the reference dye. The method, then:
as §1

Structures are written as SMILES. Where two headings read alike, the source gives them in different places.

`CCCCC/C=C/CC(CC(=O)OCCOCCN(CCOCCOC(=O)CC(C/C=C/CCCCC)C(=O)O)c1ccc(/N=N/c2sc(C#N)c(C)c2C#N)c(C)c1)C(=O)O` (centres unmarked) [reference, reference compound] yielded a pKa in data set [1] of 7.5. For the same molecule, the hydrolysis entry in data set [2] is on record as “observed”.

As for `C=COCCOCCN(CCOCCO)c1ccc(/N=N/c2sc(C#N)c(C)c2C#N)c(C)c1` [inventive], the dissolution in water entry in data set [3] is given as “did not dissolve”. Besides, the hydrolysis entry in data set [2] was “not observed”; in data set [2] (listed as inventive compound), “resistant to hydrolysis”.

As usually defined, the pKa is the negative logarithm of the acid dissociation constant. High values mean a group that holds its proton tightly, low ones a group that gives up its proton readily.
